Experiments:
Assay in all cases: Bliss excess, mean over the matrix (fraction); higher = more synergy
[1] = system: SW872 (Other Solid Carcinomas)
Method in brief: (§1)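 Cell lines in DMEM/F12 or RPMI with 10% FBS were plated in 1536-well plates, held 24 hours at 37°C, 5% CO2, then given two-drug dose matrices for 72 hours (DMSO typically 0.2%). Viability was read by CellTiter-Glo 2.0 luminescence and scaled as inhibition from 0 (vehicle wells) to 1 (blank wells). Combination Emax is the second-highest inhibition in the matrix; Bliss excess is observed combination effect minus expected EA + EB − EA·EB, EA and EB being single-agent effects.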

[2] = system: NCI-H1092 (Small Cell Lung Carcinoma)
Method in brief: as §1

EW-1 (Ewing's Sarcoma) = system: EW-1 (Ewing's Sarcoma)
Method in brief: as §1

[3] = system: Ca-Ski (Cervical Carcinoma)
Method in brief: as §1

[4] = system: HCC1937 (Breast Carcinoma)
Method in brief: as §1

[5] = system: OE33 (Esophageal Adenocarcinoma)
Method in brief: as §1

[6] = system: COLO-668 (Small Cell Lung Carcinoma)
Method in brief: as §1

[7] = system: LC-1-sq (Squamous Cell Lung Carcinoma)
Method in brief: as §1

[8] = system: HCC1500 (Breast Carcinoma)
Method in brief: as §1

[9] = system: KMRC-1 (Kidney Carcinoma)
Method in brief: as §1

[10] = system: NCI-H1838 (Lung Adenocarcinoma)
Method in brief: as §1

[11] = system: A4-Fuk (B-Lymphoblastic Leukemia)
Method in brief: as §1

[12] = system: SNU-387 (Hepatocellular Carcinoma)
Method in brief: as §1

[13] = system: MOLT-4 (T-Lymphoblastic Leukemia)
Method in brief: as §1

[14] = system: NCI-H522 (Lung Adenocarcinoma)
Method in brief: as §1

[15] = system: ME-180 (Cervical Carcinoma)
Method in brief: as §1

[16] = system: ALL-SIL (T-Lymphoblastic Leukemia)
Method in brief: as §1

[17] = system: NCI-H1355 (Lung Adenocarcinoma)
Method in brief: as §1

[18] = system: DU-145 (Prostate Carcinoma)
Method in brief: as §1

[19] = system: MV-4-11 (Acute Myeloid Leukemia)
Method in brief: as §1

SMILES	Bliss excess [1]	Bliss excess [2]	Bliss excess (EW-1 (Ewing's Sarcoma))	Bliss excess [3]	Bliss excess [4]	Bliss excess [5]	Bliss excess [6]	Bliss excess [7]	Bliss excess [8]	Bliss excess [9]	Bliss excess [10]	Bliss excess [11]	Bliss excess [12]	Bliss excess [13]	Bliss excess [14]	Bliss excess [15]	Bliss excess [16]	Bliss excess [17]	Bliss excess [18]	Bliss excess [19]
CN(C)CCCOc1ccc(-c2ccc3ncc4c(c3c2)n(C2CCOCC2)c(=O)n4C)cn1 [AZD0156] + CCN(CCO)CCCOc1ccc2c(Nc3cc(CC(=O)Nc4cccc(F)c4)[nH]n3)ncnc2c1 [AZD2811] (first compound max 1 µM, 7x7, partner max 1 µM)	-0.0311	-0.0102	0.0446	0.008	-0.0387	-0.0173	-0.0175	0.0392	-0.0563	-0.0251	-0.0122	0.0911	-0.0569	0.0107	-0.0201	-0.0143	-0.0532	-0.0599	-0.0263	-0.0383
Cn1cnc2c(F)c(Nc3ccc(Br)cc3Cl)c(C(=O)NOCCO)cc21 [Selumetinib] + C[C@@H]1COCCN1C2=NC(=NC(=C2)C3(CC3)[S@](=N)(=O)C)C4=C5C=CNC5=NC=C4 [AZD6738] (first compound max 10 µM, 7x7, partner max 10 µM)	0.0211	-0.0466	0.0014	0.0396	0.0414	-0.018	0.038	0.0238	-0.0346	-0.0303	-0.101	-0.0481	-0.0126	-0.0181	-0.0653	-0.0115	0.0106	-0.0213	-0.0441	-0.0369
CCc1c2c(nc3ccc(O)cc13)-c1cc3c(c(=O)n1C2)COC(=O)[C@]3(O)CC [SN-38] + CN(C)CCCOc1ccc(-c2ccc3ncc4c(c3c2)n(C2CCOCC2)c(=O)n4C)cn1 [AZD0156] (first compound max 0.3 µM, 7x7, partner max 1 µM)	0.0048	-0.0472	0.0608	0.0459	0.0605	0.0575	-0.0198	0.0912	0.0076	0.0671	-0.0741	0.0222	-0.0373	0.069	0.0294	-0.0259	-0.0475	-0.0107	-0.109	0.0414
CCN(CCO)CCCOc1ccc2c(Nc3cc(CC(=O)Nc4cccc(F)c4)[nH]n3)ncnc2c1 [AZD2811] + C=CCn1c(=O)c2cnc(Nc3ccc(N4CCN(C)CC4)cc3)nc2n1-c1cccc(C(C)(C)O)n1 [AZD1775] (first compound max 1 µM, partner max 1 µM)	0.0203	-0.0183	-0.0026	0.0123	-0.0331	0.0006	0.0144	0.0025	-0.0098	0.0036	-0.0575	-0.0665	-0.0155	0.0151	0.02	-0.0356	-0.0408	-0.0067	-0.0116	-0.0626
COc1nnc2ccc(N3CCC(c4ccc(OCCN5CCN(C)C(=O)[C@H]5C)cc4)CC3)nn12 [AZD5153] + Cn1cnc2c(F)c(Nc3ccc(Br)cc3Cl)c(C(=O)NOCCO)cc21 [Selumetinib] (first compound max 1 µM, 7x7, partner max 10 µM)	0.0635	-0.0592	0.041	0.0324	-0.0523	0.0318	0.236	0.0073	0.0011	-0.0365	0.03	-0.0175	0.0012	-0.0161	-0.042	-0.019	-0.0303	0.0212	0.0192	0.0309
CC(=O)c1c(C)c2cnc(Nc3ccc(N4CCNCC4)cn3)nc2n(C2CCCC2)c1=O [Palbociclib] + Cn1cnc2c(F)c(Nc3ccc(Br)cc3Cl)c(C(=O)NOCCO)cc21 [Selumetinib] (first compound max 10 µM, 7x7, partner max 10 µM)	-0.0263	-0.0322	-0.0082	-0.0701	-0.0788	-0.02	0.0008	-0.0004	-0.0229	-0.0461	-0.0003	0.132	-0.0425	-0.012	-0.0389	0.0042	-0.0358	0.0542	-0.0326	0.0537
CN(C)CCCOc1ccc(-c2ccc3ncc4c(c3c2)n(C2CCOCC2)c(=O)n4C)cn1 [AZD0156] + C=CCn1c(=O)c2cnc(Nc3ccc(N4CCN(C)CC4)cc3)nc2n1-c1cccc(C(C)(C)O)n1 [AZD1775] (first compound max 1 µM, partner max 1 µM)	-0.0183	-0.0351	-0.0281	-0.0291	-0.0734	0.0402	-0.039	-0.0248	0.0408	-0.0216	-0.0296	-0.0274	-0.054	0.0118	-0.0131	-0.0787	-0.0205	-0.0472	-0.0236	-0.0306
CC1(C)CCC(CN2CCN(c3ccc(C(=O)NS(=O)(=O)c4ccc(NCC5CCOCC5)c([N+](=O)[O-])c4)c(Oc4cnc5[nH]ccc5c4)c3)CC2)=C(c2ccc(Cl)cc2)C1 [Venetoclax] + CCN(CCO)CCCOc1ccc2c(Nc3cc(CC(=O)Nc4cccc(F)c4)[nH]n3)ncnc2c1 [AZD2811] (first compound max 1 µM, 7x7, partner max 1 µM)	-0.0179	0.075	0.0317	0.0738	-0.0394	-0.0188	0.0051	-0.0099	0.0905	-0.0456	0.0204	0.0781	-0.0422	-0.0368	0.0172	0.0083	-0.0059	-0.0219	-0.0375	0.0071
CC(=O)c1c(C)c2cnc(Nc3ccc(N4CCNCC4)cn3)nc2n(C2CCCC2)c1=O [Palbociclib] + Cc1c2c(nn1C)CSCc1cc(n(C)n1)CSc1cc(c3ccccc3c1)OCCCc1c(C(=O)O)n(C)c3c-2c(Cl)ccc13 [AZD5991] (first compound max 10 µM, 7x7, partner max 1 µM)	-0.0184	-0.0646	0.0294	-0.0239	-0.0498	-0.0041	-0.0288	-0.0587	-0.0145	-0.0363	-0.0634	0.0579	-0.0515	-0.0073	-0.0258	-0.0545	-0.0576	-0.0147	-0.0216	0.0127
C[C@@H]1COCCN1c1cc(C2([S@](C)(=N)=O)CC2)nc(-c2ccnc3[nH]ccc23)n1 [AZD6738] + O=C(c1cc(Cc2n[nH]c(=O)c3ccccc23)ccc1F)N1CCN(C(=O)C2CC2)CC1 [Olaparib] (first compound max 10 µM, 7x7, partner max 10 µM)	0.0206	-0.0333	0.0174	0.0414	-0.0665	-0.0384	0.0193	0.0157	0.0412	0.0003	-0.138	-0.0081	-0.0225	0.0556	0.0229	0.0056	0.0291	-0.0357	0.0008	-0.0566
NC1(C(=O)N[C@@H](CCO)c2ccc(Cl)cc2)CCN(c2ncnc3[nH]ccc23)CC1 [Capivasertib] + COc1nnc2ccc(N3CCC(c4ccc(OCCN5CCN(C)C(=O)[C@H]5C)cc4)CC3)nn12 [AZD5153] (first compound max 10 µM, 7x7, partner max 1 µM)	-0.0399	-0.0087	0.0867	0.0046	0.0189	0.0052	0.0552	0.0814	0.0118	0.0129	0.0032	-0.0465	-0.004	0.0908	-0.0698	-0.051	-0.0024	0.0316	0.0276	0.0074
NC1(C(=O)N[C@@H](CCO)c2ccc(Cl)cc2)CCN(c2ncnc3[nH]ccc23)CC1 [Capivasertib] + Cn1cnc2c(F)c(Nc3ccc(Br)cc3Cl)c(C(=O)NOCCO)cc21 [Selumetinib] (first compound max 10 µM, 7x7, partner max 10 µM)	0.0256	-0.0225	0.0819	0.0246	-0.0079	0.0301	-0.0088	0.0027	0.0004	0.0071	-0.0124	0.0675	-0.0521	0.0752	-0.0098	-0.0232	0.0381	0.0132	0.0037	0.0842
COc1cccc2c1C(=O)c1c(O)c3c(c(O)c1C2=O)C[C@@](O)(C(=O)CO)C[C@@H]3O[C@H]1C[C@H](N)[C@H](O)[C@H](C)O1 [Doxorubicin] + Cc1cc2ncnn2cc1Nc1ncc2c(n1)n(C1CCOCC1)c(=O)n2C [AZD7648] (first compound max 1 µM, 7x7, partner max 10 µM)	0.0299	-0.0037	0.126	0.0498	0.005	0.0114	0.0633	0.117	0.0605	0.0835	-0.0577	-0.018	0.005	0.135	0.0072	0.0438	0.0857	0.0337	0.0052	0.137
CN(CCO)CC[C@H](CSc1ccccc1)Nc1ccc(S(=O)(=O)NC(=O)c2ccc(N3CCC([C@@H](O)c4ccccc4-c4ccc(Cl)cc4)CC3)cc2)cc1S(=O)(=O)C(F)(F)F [AZD4320] + CN(C)CCCOc1ccc(-c2ccc3ncc4c(c3c2)n(C2CCOCC2)c(=O)n4C)cn1 [AZD0156] (first compound max 1 µM, 7x7, partner max 1 µM)	-0.0107	-0.0078	0.0527	-0.0173	0.0007	-0.0312	0.0435	0.0065	0.0352	-0.0245	0.0135	-0.0077	-0.0208	0.0052	-0.027	-0.0339	0.0035	-0.0888	-0.0284	-0.034
Cn1cnc2c(F)c(Nc3ccc(Br)cc3Cl)c(C(=O)NOCCO)cc21 [Selumetinib] + CCN(CCO)CCCOc1ccc2c(Nc3cc(CC(=O)Nc4cccc(F)c4)[nH]n3)ncnc2c1 [AZD2811] (first compound max 10 µM, 7x7, partner max 1 µM)	-0.01	-0.0083	0.0332	0.0553	0.016	-0.0246	-0.0161	-0.0324	-0.0123	-0.0101	-0.0363	0.176	-0.0412	0.0174	-0.0359	-0.0346	-0.0031	0.0102	-0.0077	-0.04

Source: the supplement of paper PMC11061612
